We go through 63 compounds from a melting point compilation (Tetko et al.; mined from patent text by program, amines drawn as free bases though some values may be those of a salt).

In the case of `Cc1cccc2c1NC(=O)C(CCCN1CCN(c3cccc(F)c3)CC1)S2` (stereo not drawn), the melting point – broadly, the temperature, or range, at which the solid turns liquid – was 132 to 134 °C.

In the case of `O=C1Nc2ccc(Cl)cc2C(OCC2CC2)(C(F)(F)F)CN1C1CC1` (stereo not drawn), the melting point lay in the range of 154 to 155 °C.

In the case of `COc1ccc2cccc3c2c1C(=O)N(O)C3=O`, the melting point was in the range of 205 to 206 °C.

Compound `CCCN(C(=O)OC(C)(C)C)C(CC(C)C)C(=O)NCC(=O)Oc1c(Cl)c(Cl)c(Cl)c(Cl)c1Cl` (stereo not drawn) registered a melting point of 151 to 153 °C.

`CC(=O)c1c(C)c2ccccc2n1N`: the melting point was in the range of 94 to 98 °C.

`CON=C(c1ccccc1OCc1ccc(Cl)cc1Cl)n1ccnc1`: the melting point was in the range of 122 to 123 °C.

As to `O=c1c(Cc2ccccc2)c(-c2ccccc2)oc2cc(OCC3CO3)ccc12` (stereo not drawn), the melting point was 133 to 138 °C.

In turn, `COc1cccc(-c2ccc3ccccc3c2Oc2ccc(C=O)cc2)c1` registered a melting point of 125 to 126 °C.

As for `COCOc1cc(C=O)c2nc3cccc(OCOC)c3nc2c1`, the melting point is 148 to 150 °C.

As to `O=S1(=O)NC(C2CCCCC2)Nc2ccc(-c3ccccc3Cl)cc21` (stereo not drawn), the melting point was in the range of 233 to 236 °C.

For `Cn1nc(N)nc1NCCCOc1cccc(CN2C(=O)c3ccccc3C2=O)c1`, the melting point fell in the range of 55 to 57 °C.

Compound `CCN(CC)CCNc1ccc(NCCNCCO)c2c1C(=O)c1c(O)ccc(O)c1C2=O` had a melting point of 165 to 167 °C.

For the compound `Cc1nc(C(C)O)c2n1-c1ccc(Cl)cc1C(c1ccccc1Cl)=NC2` (stereo not drawn), the melting point was 197 to 199 °C.

`Cc1ccc(-c2ccc3c(c2)C=C(C(=O)Nc2ccc(CN4CCCCC4)cc2)CC3)cc1` yielded a melting point of 187 to 189 °C.

Take `COC(=O)CCc1oc(Sc2ccc(O)cc2)nc1-c1ccccc1`: the melting point was in the range of 157 to 158 °C.

`Cc1ccc(C)c2c1CN(NC(=O)OC(C)(C)C)C2` yielded a melting point of 148 to 151 °C.

In the case of `CC(c1cccc(Cl)c1)(n1ccnc1)C1(O)C2CC3CC(C2)CC1C3` (stereo not drawn), the melting point is 121 °C.

In the case of `COC(=NS(=O)(=O)c1ccccc1Cl)Nc1nc(C)nc(OC)n1`, the melting point lay in the range of 156 to 157 °C.

Consider `O=[N+]([O-])c1ccc2[nH]c(/C=C/c3ccoc3)nc2c1`, for which the melting point lay in the range of 230 to 233 °C.

`O=C1NC(=O)C(=Cc2ccc(OC3CCN(C(=O)OCC4c5ccccc5-c5ccccc54)CC3)cc2)S1` returned a melting point of 185 °C.

In turn, `O=C(Nc1ccccc1)NC1CCN2CCc3ccccc3C2C1` (stereo not drawn) gave a melting point of 210 °C.

For `Cc1cc(-c2ccc(C(F)(F)F)cc2)cn2c(-c3cc(-c4ncon4)c(S(N)(=O)=O)s3)cnc12`, the melting point was determined as 285 °C.

`CCOC(=O)COCCCC(=CC(N)C(=O)O)CP(=O)(O)O` (stereo not drawn) registered a melting point of 215 to 218 °C.

`CS(=O)(=O)c1ccc(-n2nc(C(N)=O)cc2-c2ccc(-c3ccco3)cc2)cc1F` displayed a melting point of 239 to 240 °C.

In turn, `C[C@]12C[C@H](c3ccc(OCCCCCl)cc3)C3=C4CCC(=O)C=C4CC[C@H]3[C@@H]1CCC2=O` returned a melting point of 194 °C.

Turning to `CC(C)(C)c1ccc2c(O)c(-c3ccccc3)sc2n1`, the melting point was 181 to 183 °C.

`CCNc1c(C(=O)OCC)c(C)nc2nccnc12` had a melting point of 72 to 74 °C.

The compound `O=C(NC1CCC1)c1cc(Nc2nc(N3CCCC3c3ccccn3)nc3ccoc23)[nH]n1` (stereo not drawn) displayed a melting point of 250 °C.

Compound `CCc1cc(OC)c(N)c2ccccc12` had a melting point of 80 °C.

Consider `COC(=O)N1C(=S)NC(C)=C(C(=O)OC(C)C)C1c1cccc([N+](=O)[O-])c1` (stereo not drawn), for which the melting point lay in the range of 130 to 132 °C.

`CC1Oc2ccc(CN3CCN(CCO)CC3)cc2NC1=O` (stereo not drawn) displayed a melting point of 174 °C.

For the compound `CC(C)(C)c1ccc(CCC(=O)CC2CCCCC2)cc1NC(=O)CC1c2ccccc2Oc2ccccc21`, the melting point lay in the range of 154 to 155 °C.

Turning to `COC(=O)c1nc(N=C=S)ccc1Oc1nc(OC)cc(OC)n1`, the melting point lay within 116 to 117 °C.

In turn, `CCOCc1cc2cc(Br)ccc2oc1=Nc1ccc(Cl)cc1` showed a melting point of 144 to 145 °C.

Regarding `CC(C)(C)OC(=O)NCc1cccc(Cn2ccc(OCc3ccc(F)cc3F)c(Br)c2=O)c1`, the melting point lay within 80 to 84 °C.

For `N#Cc1ccc(OC2CCN(c3ccncc3)C2)cc1` (stereo not drawn), the melting point was 182 to 185 °C.

On to `COc1cc(-c2ccccc2Cl)c(Cl)cc1C(=O)N1Cc2cccn2Cc2ccccc21`, for which the melting point was 209 to 211 °C.

For the compound `CO[C@@H]1C=C2C=C3C(=C(C)C(=O)N3C)C[C@]2(C)[C@@H](C)[C@H]1OC(=O)c1ccco1`, the melting point is 155 to 158 °C.

On to `CN(C)C(=O)C(c1ccc(N)cc1)C1(O)CCCCC1` (stereo not drawn), for which the melting point is 169 to 170 °C.

`CCCCc1c(F)c(F)c(NN)c(F)c1F` gave a melting point of 80 to 81 °C.

Consider `CC[C@H](N)C(=O)N1c2ccccc2C[C@H]1C(=O)NC`, for which the melting point fell in the range of 138 to 139 °C.

In turn, `CC1OC(=S)Nc2ccc(-c3cccc(F)c3)cc21` (stereo not drawn) had a melting point of 173 to 174 °C.

`COC(=O)c1ccc(NC(C)=O)c([N+](=O)[O-])c1` displayed a melting point of 123 to 124 °C.

Compound `CN(C)C=CC(=O)c1ccc(Cl)cc1` gave a melting point of 78.5 to 80.5 °C.

In turn, `O=S(=O)(Cl)c1cc(S(=O)(=O)Cl)c2c(Cl)ccc(S(=O)(=O)Cl)c2c1` gave a melting point of 165 to 166 °C.

With `COc1ccc(Oc2ccc(C(=O)N(C3CCCC3)C3CCCC3)cc2)cc1OC`, the melting point stood at 180 °C.

Take `Fc1cccc(Cl)c1COc1cc(Cl)cnc1NC(=S)Nc1ccc(Cl)cc1`: the melting point fell in the range of 158 to 160 °C.

Compound `COc1cccc2c1OC(CO)C2=O` (stereo not drawn) had a melting point of 103 to 104 °C.

Compound `CS(=O)(=O)Nn1c(=O)[nH]c2cc(C(F)(F)F)c(CCCO)cc2c1=O` came in with a melting point of 243 to 247 °C.

`NC(=O)c1nc(-c2cccc(O)c2)nc2c1[nH]c(=O)n2-c1ccc(Cl)cc1Cl` showed a melting point of 375 to 377 °C.

The compound `CS(=O)(=O)c1ccc(C(CC2CCCC2)c2nc(F)c(C(=O)C3CC3)[nH]2)cc1` (stereo not drawn) registered a melting point of 160 to 162 °C.

The compound `COc1cc(Cc2cnc(N)nc2N)c2cc(C)oc2c1OC` registered a melting point of 209 to 212 °C.

The compound `CCCC1=C(C(=O)OCC)C(c2ccnc3ccccc23)c2c[nH]nc2N1` (stereo not drawn) gave a melting point of 198 °C.

Turning to `C=Cc1c(NC(=O)c2cn(C)nc2C(F)(F)F)cccc1C(C)(C)C`, the melting point was 118 to 119 °C.

With `O=C(c1ccc(Cl)cc1)N1CC2CC2(c2ccc(Cl)cc2)C1` (stereo not drawn), the melting point was in the range of 88 to 92 °C.

With `NNc1ccc(C(F)(F)F)c(Cl)c1Cl`, the melting point lay within 79 to 80 °C.

Regarding `C[C@H](COS(C)(=O)=O)N1C(=O)c2ccccc2C1=O`, the melting point was in the range of 75 to 77 °C.

As to `CCc1cc2c(SCc3ccccc3)ncnc2s1`, the melting point was in the range of 54 to 60 °C.

`Cn1c(Br)c(Br)c(Br)c1C#N` came in with a melting point of 115 to 119 °C.

The compound `O=C1NC(=O)C2(c3cc(O)c(Cl)cc3F)CCCCC12` (stereo not drawn) returned a melting point of 140 to 141 °C.

Regarding `CC(Oc1cc(Oc2ccc(C(F)(F)F)cc2Cl)ccc1[N+](=O)[O-])C(=O)NCC1CCCO1` (stereo not drawn), the melting point lay in the range of 102 to 104 °C.

In turn, `Cc1noc(C)c1C(=O)Nc1ccc(-n2nc(C(F)(F)F)cc2C2CC2)c(F)c1` came in with a melting point of 163 to 165 °C.

`Nc1nonc1-c1nc2ccccc2n1CC(=O)C=Cc1ccccc1` had a melting point of 176 to 180 °C.
